Measurements as given in patent US20250002548A1, “Wild Boar Cathelicidin Peptide Variants and Vectors Encoding the Same for Uses in Managing Coronavirus Infections” (Emory University, priority 2021, published 2025).
Square brackets hold non-standard residues; d marks the D form. Peptide text beside a SMILES is read from it.

Columns and labels:
[1] = test system: Vero E6 and HEK293T cells; conditions: administered over 48 hours
SARS-CoV-2 [2] = conditions: ratio of IC50 and TD50; SARS-CoV-2 vs Vero E6 cells
[3] = test system: human red blood cells (RBCs)
SARS-CoV-2 [4] = test system: SARS-CoV-2

| SMILES | cytotoxicity [1] | therapeutic index (TI) (SARS-CoV-2 [2]) | hemolytic activity [3] | IC50 (SARS-CoV-2 [4]) [µM] |
| --- | --- | --- | --- | --- |
| CC[C@@H](C)[C@@H](NC(=O)[C@H]1CCCN1C(=O)[C@H]1CCCN1C(=O)[C@H](NC(=O)[C@@H](Cc1c[nH]c2ccccc12)NC(=O)[C@@H](CCCCN)NC(=O)[C@@H](CC(C)C)NC(=O)[C@H](NC(=O)[C@@H](CCCCN)NC(=O)CNC(=O)[C@H](NC(=O)[C@@H](CCCCN)NC(=O)[C@@H](CCCCN)NC(=O)[C@@H](CC(C)C)NC(=O)[C@@H](CCCNC(=N)N)NC(=O)[C@@H](CCCCN)NC(=O)[C@@H](CCCNC(=N)N)NC(=O)[C@H](NC(=O)[C@@H](CCCCN)NC(=O)[C@@H](CCCCN)NC(=O)[C@@H](CCCNC(=N)N)NC(=O)[C@@H](CC(C)C)NC(=O)[C@@H](CCCNC(=N)N)NC(=O)[C@@H](CCCNC(=N)N)NC(=O)[C@@H](Cc1ccccc1)NC(=O)[C@@H](CCCNC(=N)N)NC(=O)CNC(=O)[C@H](N)C(C)C)[C@H](C)O)[C@H](C)CC)C(C)C)[C@H](C)CC)C(=O)N[C@@H](C(=O)NCC(=O)N[C@H](CO)C(=O)N[C@@H](C(=O)N1CCC[C@@H]1C(=O)N[C@H](CC(C)C)C(=O)NCC(=O)N[C@H](CO)C(=O)NCC(=O)O)[C@H](C)CC)C(C)C [D-Yongshi] (H-[dV]G[dR][dF][dR][dR][dL][dR][dK][dK][dT][dR][dK][dR][dL][dK][dK][dI]G[dK][dV][dL][dK][dW][dI][dP][dP][dI][dV]G[dS][dI][dP][dL]G[dS]G-OH) | significantly increased cytotoxicity | 1.64 |  |  |
| CC[C@H](C)[C@H](NC(=O)[C@H](CCCCN)NC(=O)[C@H](CCC(=O)O)NC(=O)[C@H](CCCCN)NC(=O)[C@H](CO)NC(=O)[C@H](CCCCN)NC(=O)[C@H](CCCNC(=N)N)NC(=O)[C@H](Cc1ccccc1)NC(=O)[C@H](Cc1ccccc1)NC(=O)[C@H](CC(=O)O)NC(=O)CNC(=O)[C@H](CC(C)C)NC(=O)[C@@H](N)CC(C)C)C(=O)NCC(=O)N[C@@H](CCCCN)C(=O)N[C@@H](CCC(=O)O)C(=O)N[C@@H](Cc1ccccc1)C(=O)N[C@@H](CCCCN)C(=O)N[C@@H](CCCNC(=N)N)C(=O)N[C@H](C(=O)N[C@H](C(=O)N[C@@H](CCC(N)=O)C(=O)N[C@@H](CCCNC(=N)N)C(=O)N[C@H](C(=O)N[C@@H](CCCCN)C(=O)N[C@@H](CC(=O)O)C(=O)N[C@@H](Cc1ccccc1)C(=O)N[C@@H](CC(C)C)C(=O)N[C@@H](CCCNC(=N)N)C(=O)N[C@@H](CC(N)=O)C(=O)N[C@@H](CC(C)C)C(=O)N[C@H](C(=O)N1CCC[C@H]1C(=O)N[C@@H](CCCNC(=N)N)C(=O)N[C@H](C(=O)N[C@@H](CCC(=O)O)C(=O)N[C@@H](CO)C(=O)O)[C@@H](C)O)C(C)C)[C@@H](C)CC)C(C)C)[C@@H](C)CC [LL-37, reference compound] |  |  | significant hemolytic activity |  |
| CC[C@H](C)[C@H](NC(=O)[C@H](CCCCN)NC(=O)[C@H](CCCCN)NC(=O)[C@H](CC(C)C)NC(=O)[C@H](CCCNC(=N)N)NC(=O)[C@H](CCCCN)NC(=O)[C@H](CCCNC(=N)N)NC(=O)[C@@H](NC(=O)[C@H](CCCCN)NC(=O)[C@H](CCCCN)NC(=O)[C@H](CCCNC(=N)N)NC(=O)[C@H](CC(C)C)NC(=O)[C@H](CCCNC(=N)N)NC(=O)[C@H](CCCNC(=N)N)NC(=O)[C@H](Cc1ccccc1)NC(=O)[C@H](CCCNC(=N)N)NC(=O)CNC(=O)[C@@H](N)C(C)C)[C@@H](C)O)C(=O)NCC(=O)N[C@@H](CCCCN)C(=O)N[C@H](C(=O)N[C@@H](CC(C)C)C(=O)N[C@@H](CCCCN)C(=O)N[C@@H](Cc1c[nH]c2ccccc12)C(=O)N[C@H](C(=O)N1CCC[C@H]1C(=O)N1CCC[C@H]1C(=O)N[C@H](C(=O)N[C@H](C(=O)NCC(=O)N[C@@H](CO)C(=O)N[C@H](C(=O)N1CCC[C@H]1C(=O)N[C@@H](CC(C)C)C(=O)NCC(=O)N[C@@H](CS)C(=O)NCC(=O)O)[C@@H](C)CC)C(C)C)[C@@H](C)CC)[C@@H](C)CC)C(C)C [PMAP-36R] (H-VGRFRRLRKKTRKRLKKIGKVLKWIPPIVGSIPLGCG-OH; N-terminus and C-terminus assumed) | greater toxicity than LL-37 |  | significant hemolytic activity | 12 |
| CC[C@H](C)[C@H](NC(=O)[C@H](CCCCN)NC(=O)[C@H](CCCCN)NC(=O)[C@H](CC(C)C)NC(=O)[C@H](CCCNC(=N)N)NC(=O)[C@H](CCCCN)NC(=O)[C@H](CCCNC(=N)N)NC(=O)[C@@H](NC(=O)[C@H](CCCCN)NC(=O)[C@H](CCCCN)NC(=O)[C@H](CCCNC(=N)N)NC(=O)[C@H](CC(C)C)NC(=O)[C@H](CCCNC(=N)N)NC(=O)[C@H](CCCNC(=N)N)NC(=O)[C@H](Cc1ccccc1)NC(=O)[C@H](CCCNC(=N)N)NC(=O)CNC(=O)[C@@H](N)C(C)C)[C@@H](C)O)C(=O)NCC(=O)N[C@@H](CCCCN)C(=O)N[C@H](C(=O)N[C@@H](CC(C)C)C(=O)N[C@@H](CCCCN)C(=O)N[C@@H](Cc1c[nH]c2ccccc12)C(=O)N[C@H](C(=O)N1CCC[C@H]1C(=O)N1CCC[C@H]1C(=O)N[C@H](C(=O)N[C@H](C(=O)NCC(=O)N[C@@H](CO)C(=O)N[C@H](C(=O)N1CCC[C@H]1C(=O)N[C@@H](CC(C)C)C(=O)NCC(=O)N[C@@H](CO)C(=O)NCC(=O)O)[C@@H](C)CC)C(C)C)[C@@H](C)CC)[C@@H](C)CC)C(C)C [Yongshi] (H-VGRFRRLRKKTRKRLKKIGKVLKWIPPIVGSIPLGSG-OH) | decreased cytotoxicity compared to the parent PMAP-36R and LL-37 | 3.50 | significantly reduced hemolytic activity |  |
